US6506339B1, “Method of sterilization” (Biomedical Design, Inc., priority 1997, dated 2003)

Columns and labels:
[1] = system: spores of Bacillus subtilis; test: Two sequential spore inoculations on cross-linked porcine valves (Example 5); type: cell-based; conditions: 25 mM EDC, 20% isopropyl alcohol, 40° C.
Experimental: An experiment was also designed to test the bactericidal activity of the EDC treatment using two sequential inoculations of at least 1×10^6 spores of Bacillus subtilis per sample. In the first step, 1.43×10^6 spores (Log10=6.2) were inoculated in triplicate for 10 minutes onto 45 porcine valves which had been cross-linked using a method as described in the above-mentioned patent and patent application. Solutions of 25 mM EDC in 10 mM HEPES, 0.85% NaCl, 20% isopropyl alcohol, at pH 6.5 were poured into the cups containing the valve samples. After 2, 4, 6, and 8 hours of incubation at 40° C., the total surviving spores from 12 samples (solution plus tissue) were counted. After 8 hours of incubation, an additional 1.2×10^6 (Log10=6.1) spores were added to the remaining 33 samples. Summarizing, these remaining 33 samples were thus inoculated at t=0 with 1.43×10^6 spores and at t=8 with 1.2×10^6 spores. After various durations of incubation (see Table C for details), the surviving spores in solution and on the valve tissue were removed by filtering and incubated on TSA plates as described above. The positive and negative controls were determined to be valid for the test.

[2] = system: Mycobacterium Chelonae ATCC 35752; test: Sterilization test, Mycobacterium chelonae in sterile cups at room temperature (Example 1); type: cell-based; parameters: key: (+) Indicates growth; (−) indicates no growth; conditions: 10 mM EDC+1 mM Sulfo-NHS
Experimental: Porcine aortic roots are fixed by cross-linking according to the method described in U.S. Pat. No. 5,447,536. After fixation, the valves are stored in 10 mM HEPES, 0.85% NaCl, 20% isopropyl alcohol, pH 7.4, at 4° C. The sterility tests described in the following examples are in most cases conducted in the presence of bioprosthetic heart valve tissue; when such tissue is not present, the solutions are simply filtered through a 0.45 micron filter attached to a funnel (filter funnel). The filters are then rinsed with peptone water to eliminate residual chemicals on the membrane that may prevent growth of the organisms tested. Such membrane filters are then incubated on TSA plates at about 32° to 33° C., e.g. 32.5° C. When an aortic valve is inoculated with microorganisms for test purposes and then submitted to sterilization, the solution is filtered as described above. The aortic valve tissue is then washed for 20 minutes in a reciprocating shaker in the presence of peptone water containing Tween 80 in order to extract all indigenous spores or microorganisms from the tissue. This solution is filtered and then incubated as described above. All microbiological testing is performed in a biological laminar flow hood to prevent contamination. The shrinkage temperature and the proteolytic (collagenase and protease) degradation tests are conducted as previously described in the '536 patent. Resistance to calcification is assessed by subdermal implantation of sterilized leaflets and aortic wall coupons in young rats, as also described in the '536 U.S. patent.
Mycobacterium Chelonae ATCC 35752 (˜10^5) was inoculated in sterile cups. A 10 mM HEPES, 0.85% NaCl, pH 6.5 solution containing 10 mM EDC and 1 mM Sulfo-NHS in the presence or absence of 20% isopropyl alcohol was maintained in contact with the bacteria in the cups for various periods of time (treatment duration). The cups were maintained at room temperature, and the solutions were then filtered. The filters were then incubated at about 32-33° C. for up to 6 weeks (incubation duration) using either Trypticase Soy Agar (TSA) plates or Trypticase Soy Broth (TSB). All inoculations were done in duplicate.

[3] = 28 to 56 hours, rechallenge with 1.2×10^6 spores at 8 hours, mean of three samples
[4] = 2 hours, inoculum 1.43×10^6, mean of three samples
[5] = 4 hours, inoculum 1.43×10^6, mean of three samples
[6] = 6 hours, inoculum 1.43×10^6, mean of three samples
[7] = 8 hours, inoculum 1.43×10^6, mean of three samples
[8] = 11 hours, rechallenge with 1.2×10^6 spores at 8 hours, mean of three samples
[9] = 14 hours, rechallenge with 1.2×10^6 spores at 8 hours, mean of three samples
[10] = 20 hours, rechallenge with 1.2×10^6 spores at 8 hours, mean of three samples
[11] = 24 hours, rechallenge with 1.2×10^6 spores at 8 hours, mean of three samples

CCN=C=NCCCN(C)C.Cl [EDC, 1-ethyl-3(3-dimethylaminopropyl)carbodiimide hydrochloride] was tested, and the “LOG REDUCTION” value [1, 3] was 6.1, the “Total Survivors # CFUs” value [1, 3] was 0 CFUs and the “Total Survivors Log 10” value [1, 3] was 0 Log 10. The “LOG REDUCTION” value [1, 4] was 4.5, the “Total Survivors # CFUs” value [1, 4] was 58 CFUs and the “Total Survivors Log 10” value [1, 4] was 1.7 Log 10. For the same compound, the “LOG REDUCTION” value [1, 5] was 5.6, the “Total Survivors # CFUs” value [1, 5] was 4 CFUs and the “Total Survivors Log 10” value [1, 5] was 0.5 Log 10. The “LOG REDUCTION” value [1, 6] was 6.2, the “Total Survivors # CFUs” value [1, 6] was 0 CFUs and the “Total Survivors Log 10” value [1, 6] was 0 Log 10. The “LOG REDUCTION” value [1, 7] was 6.2, the “Total Survivors # CFUs” value [1, 7] was 0 CFUs and the “Total Survivors Log 10” value [1, 7] was 0 Log 10. The “LOG REDUCTION” value [1, 8] was 3.7, the “Total Survivors # CFUs” value [1, 8] was 300 CFUs and the “Total Survivors Log 10” value [1, 8] was 2.5 Log 10. For the same compound, the “LOG REDUCTION” value [1, 9] was 6.1, the “Total Survivors # CFUs” value [1, 9] was 0 CFUs and the “Total Survivors Log 10” value [1, 9] was 0 Log 10. The “LOG REDUCTION” value [1, 10] was 6.1, the “Total Survivors # CFUs” value [1, 10] was 0 CFUs and the “Total Survivors Log 10” value [1, 10] was 0 Log 10. The “LOG REDUCTION” value [1, 11] was 6.1, the “Total Survivors # CFUs” value [1, 11] was 0 CFUs and the “Total Survivors Log 10” value [1, 11] was 0 Log 10. The growth ([2]; 20% isopropyl alcohol, treatment 0 hour, incubation 3 Week, TSA) was “+,+”, the growth ([2]; 20% isopropyl alcohol, treatment 0 hour, incubation 3 Week, TSB) was “+,+” and the growth ([2]; 20% isopropyl alcohol, treatment 0 hour, incubation 4 Week, TSA) was “+,+”. The growth ([2]; 20% isopropyl alcohol, treatment 0 hour, incubation 4 Week, TSB) was “+,+”, the growth ([2]; 20% isopropyl alcohol, treatment 0 hour, incubation 6 Week, TSA) was “+,+” and the growth ([2]; 20% isopropyl alcohol, treatment 0 hour, incubation 6 Week, TSB) was “+,+”. The growth ([2]; no isopropyl alcohol, treatment 0 hour, incubation 1 Day, TSA) was “+,+”, the growth ([2]; no isopropyl alcohol, treatment 0 hour, incubation 1 Day, TSB) was “+,+” and the growth ([2]; no isopropyl alcohol, treatment 0 hour, incubation 1 Week, TSA) was “+,+”. The growth ([2]; no isopropyl alcohol, treatment 0 hour, incubation 1 Week, TSB) was “+,+”, the growth ([2]; no isopropyl alcohol, treatment 0 hour, incubation 3 Week, TSA) was “+,+” and the growth ([2]; no isopropyl alcohol, treatment 0 hour, incubation 3 Week, TSB) was “+,+”. The growth ([2]; no isopropyl alcohol, treatment 0 hour, incubation 4 Week, TSA) was “+,+”, the growth ([2]; no isopropyl alcohol, treatment 0 hour, incubation 4 Week, TSB) was “+,+” and the growth ([2]; no isopropyl alcohol, treatment 0 hour, incubation 6 Week, TSA) was “+,+”. The growth ([2]; no isopropyl alcohol, treatment 0 hour, incubation 6 Week, TSB) was “+,+”, the growth ([2]; no isopropyl alcohol, treatment 12 hours, incubation 1 Day, TSA) was “+,+” and the growth ([2]; no isopropyl alcohol, treatment 12 hours, incubation 1 Day, TSB) was “+,+”. The growth ([2]; no isopropyl alcohol, treatment 12 hours, incubation 1 Week, TSA) was “+,+”, the growth ([2]; no isopropyl alcohol, treatment 12 hours, incubation 1 Week, TSB) was “+,+” and the growth ([2]; no isopropyl alcohol, treatment 12 hours, incubation 3 Week, TSA) was “+,+”. The growth ([2]; no isopropyl alcohol, treatment 12 hours, incubation 3 Week, TSB) was “+,+”, the growth ([2]; no isopropyl alcohol, treatment 12 hours, incubation 4 Week, TSA) was “+,+” and the growth ([2]; no isopropyl alcohol, treatment 12 hours, incubation 4 Week, TSB) was “+,+”. The growth ([2]; no isopropyl alcohol, treatment 12 hours, incubation 6 Week, TSA) was “+,+”, the growth ([2]; no isopropyl alcohol, treatment 12 hours, incubation 6 Week, TSB) was “+,+” and the growth ([2]; no isopropyl alcohol, treatment 24 hours, incubation 1 Day, TSA) was “−,−”. For the same compound, the growth ([2]; no isopropyl alcohol, treatment 24 hours, incubation 1 Day, TSB) was “−,−”, the growth ([2]; no isopropyl alcohol, treatment 24 hours, incubation 1 Week, TSA) was “+,+” and the growth ([2]; no isopropyl alcohol, treatment 24 hours, incubation 1 Week, TSB) was “+,+”. For the same compound, the growth ([2]; no isopropyl alcohol, treatment 24 hours, incubation 3 Week, TSA) was “+,+”, the growth ([2]; no isopropyl alcohol, treatment 24 hours, incubation 3 Week, TSB) was “+,+” and the growth ([2]; no isopropyl alcohol, treatment 24 hours, incubation 4 Week, TSA) was “+,+”. The growth ([2]; no isopropyl alcohol, treatment 24 hours, incubation 4 Week, TSB) was “+,+”, the growth ([2]; no isopropyl alcohol, treatment 24 hours, incubation 6 Week, TSA) was “+,+” and the growth ([2]; no isopropyl alcohol, treatment 24 hours, incubation 6 Week, TSB) was “+,+”. The growth ([2]; no isopropyl alcohol, treatment 48 hours, incubation 1 Day, TSA) was “−,−”, the growth ([2]; no isopropyl alcohol, treatment 48 hours, incubation 1 Day, TSB) was “−,−” and the growth ([2]; no isopropyl alcohol, treatment 48 hours, incubation 1 Week, TSA) was “−,−”. The growth ([2]; no isopropyl alcohol, treatment 48 hours, incubation 1 Week, TSB) was “−,−”, the growth ([2]; no isopropyl alcohol, treatment 48 hours, incubation 3 Week, TSA) was “−,−” and the growth ([2]; no isopropyl alcohol, treatment 48 hours, incubation 3 Week, TSB) was “−,−”. For the same compound, the growth ([2]; no isopropyl alcohol, treatment 48 hours, incubation 4 Week, TSA) was “−”, the growth ([2]; no isopropyl alcohol, treatment 48 hours, incubation 4 Week, TSB) was “+” and the growth ([2]; no isopropyl alcohol, treatment 48 hours, incubation 6 Week, TSA) was “−”. The growth ([2]; no isopropyl alcohol, treatment 48 hours, incubation 6 Week, TSB) was “+”, the growth ([2]; no isopropyl alcohol, treatment 72 hours, incubation 1 Day, TSA) was “−,−” and the growth ([2]; no isopropyl alcohol, treatment 72 hours, incubation 1 Day, TSB) was “−,−”. The growth ([2]; no isopropyl alcohol, treatment 72 hours, incubation 1 Week, TSA) was “−,−”, the growth ([2]; no isopropyl alcohol, treatment 72 hours, incubation 1 Week, TSB) was “−,−” and the growth ([2]; no isopropyl alcohol, treatment 72 hours, incubation 3 Week, TSA) was “−,−”. For the same compound, the growth ([2]; no isopropyl alcohol, treatment 72 hours, incubation 3 Week, TSB) was “−,−”, the growth ([2]; no isopropyl alcohol, treatment 72 hours, incubation 4 Week, TSA) was “−,−” and the growth ([2]; no isopropyl alcohol, treatment 72 hours, incubation 4 Week, TSB) was “−,−”. The growth ([2]; no isopropyl alcohol, treatment 72 hours, incubation 6 Week, TSA) was “−” and the growth ([2]; no isopropyl alcohol, treatment 72 hours, incubation 6 Week, TSB) was “+”.
